{"source": "patent US20180353501A1", "about": "(Arvinas, Inc., priority 2017, published 2018)", "assay": "Pharmacokinetics of intraperitoneal or intravenous injection in CD1 mice (plasma, LC/MS/MS)", "format": "in vivo", "conditions": "for concentration at 0.25 h / concentration at 0.5 h / concentration at 1 h / concentration at 2 h / concentration at 4 h / concentration at 8 h / concentration at 24 h / concentration at 0.033 h / concentration at 0.083 h: male, CD1, mouse, plasma", "method": "Pharmacokinetics of Intraperitoneal or Intravenous Injection of Example 1 or Example 2.\nThe pharmacokinetics of Example 1 and 2 was examined for intraperitoneal and intravenous administration. The desired serial concentrations of working solutions were achieved by diluting stock solution (1 mg/mL in DMSO) of analyte with methanol. In particular, 20 μL of working solutions (1, 2, 5, 10, 50, 100, 500, 1000, 2000 ng/mL) were added to 20 μL of the blank CD1 mice plasma to achieve calibration standards of 1-2000 ng/mL (1, 2, 5, 10, 50, 100, 500, 1000, 2000 ng/mL) in a total volume of 40 pt. Dose of IV and IP were diluted by 1000 fold and 10000 with methanol, 20 μL of the diluted dose solutions were added to 20 μL of the blank CD1 mice plasma to achieve dose samples. Next, 40 μL standards and 40 μL dose samples were added to 20 μL of assay Internal Standard (100 ng/mL) and 200 μL of acetonitrile for precipitating protein respectively. Then the samples were vortexed for 30 seconds. After centrifugation at 4 degree Celsius, 4000 rpm for 15 min, the supernatant was diluted 3 times with water. Then, 10 μL of the diluted supernatant was injected into the LC/MS/MS system for quantitative analysis.\nExamples 1 and 2 were administered intravenously (5 second injection of 10% HP-b-CD and 40 mM sodium acetate and 40 mM NaCl in water, pH4.5) or intraperitoneally (5% EtOH and 5% Solutol HS15 in D5W(ESD-2)) to 6-8 week old male CD1 mice (3 mice per treatment group for a total of 12 mice) at the time points indicated below in Table 3. The mice had free access to food and water.\nDorsal metatarsal vein samples (30 μL), except that the final sample was acquired via a heart puncture, were taken from the mice at the same the administration time points as shown in Table 2.\nThe data for Example 1 is shown below in FIG. 5 and Tables 5 (FIG. 6), 6 and 7. The data for Example 2 is shown in FIG. 7 and Tables 8 (FIG. 8), 9, and 10.", "key": {"[1]": {"conditions": "ip, 10 mg/kg, IP 10 mg/kg, read-out: Conc. Mean"}, "[2]": {"conditions": "ip, 10 mg/kg, IP 10 mg/kg, read-out: Conc. Mouse 1"}, "[3]": {"conditions": "ip, 10 mg/kg, IP 10 mg/kg, read-out: Conc. Mouse 2"}, "[4]": {"conditions": "ip, 10 mg/kg, IP 10 mg/kg, read-out: Conc. Mouse 3"}, "[5]": {"conditions": "iv, 1 mg/kg, IV 1.0 mg/kg, read-out: Conc. Mean"}, "[6]": {"conditions": "iv, 1 mg/kg, IV 1.0 mg/kg, read-out: Conc. Mouse 1"}, "[7]": {"conditions": "iv, 1 mg/kg, IV 1.0 mg/kg, read-out: Conc. Mouse 2"}, "[8]": {"conditions": "iv, 1 mg/kg, IV 1.0 mg/kg, read-out: Conc. Mouse 3"}}, "note": "Like-named read-outs stand apart in the source and are kept apart here.", "data": [{"smiles": "COc1cc2c(Oc3ccc(NC(=O)C4(C(=O)Nc5ccc(F)cc5)CC4)cc3F)ccnc2cc1OCCCOCCCOCCC(=O)N[C@H](C(=O)N1C[C@H](O)C[C@H]1C(=O)NCc1ccc(-c2scnc2C)cc1)C(C)(C)C", "note": "[Example 1]", "values": [{"measurement": "Conc. Mouse 1", "setting": "IV 1.0 mg/kg, 24 h", "value": "BLOQ"}, {"measurement": "Conc. Mouse 2", "setting": "IV 1.0 mg/kg, 24 h", "value": "BLOQ"}, {"measurement": "concentration at 0.25 h", "setting": "[1]", "value": 2200, "unit": "ng/mL"}, {"measurement": "concentration at 0.25 h", "setting": "[2]", "value": 3420, "unit": "ng/mL"}, {"measurement": "concentration at 0.25 h", "setting": "[3]", "value": 2180, "unit": "ng/mL"}, {"measurement": "concentration at 0.25 h", "setting": "[4]", "value": 990, "unit": "ng/mL"}, {"measurement": "concentration at 0.5 h", "setting": "[1]", "value": 3310, "unit": "ng/mL"}, {"measurement": "concentration at 0.5 h", "setting": "[2]", "value": 5210, "unit": "ng/mL"}, {"measurement": "concentration at 0.5 h", "setting": "[3]", "value": 2500, "unit": "ng/mL"}, {"measurement": "concentration at 0.5 h", "setting": "[4]", "value": 2210, "unit": "ng/mL"}, {"measurement": "concentration at 1 h", "setting": "[1]", "value": 5530, "unit": "ng/mL"}, {"measurement": "concentration at 1 h", "setting": "[2]", "value": 4470, "unit": "ng/mL"}, {"measurement": "concentration at 1 h", "setting": "[3]", "value": 9060, "unit": "ng/mL"}, {"measurement": "concentration at 1 h", "setting": "[4]", "value": 3050, "unit": "ng/mL"}, {"measurement": "concentration at 2 h", "setting": "[1]", "value": 7500, "unit": "ng/mL"}, {"measurement": "concentration at 2 h", "setting": "[2]", "value": 5740, "unit": "ng/mL"}, {"measurement": "concentration at 2 h", "setting": "[3]", "value": 6210, "unit": "ng/mL"}, {"measurement": "concentration at 2 h", "setting": "[4]", "value": 10500, "unit": "ng/mL"}, {"measurement": "concentration at 4 h", "setting": "[1]", "value": 4520, "unit": "ng/mL"}, {"measurement": "concentration at 4 h", "setting": "[2]", "value": 6340, "unit": "ng/mL"}, {"measurement": "concentration at 4 h", "setting": "[3]", "value": 3740, "unit": "ng/mL"}, {"measurement": "concentration at 4 h", "setting": "[4]", "value": 3460, "unit": "ng/mL"}, {"measurement": "concentration at 8 h", "setting": "[1]", "value": 411, "unit": "ng/mL"}, {"measurement": "concentration at 8 h", "setting": "[2]", "value": 476, "unit": "ng/mL"}, {"measurement": "concentration at 8 h", "setting": "[3]", "value": 329, "unit": "ng/mL"}, {"measurement": "concentration at 8 h", "setting": "[4]", "value": 429, "unit": "ng/mL"}, {"measurement": "concentration at 24 h", "setting": "ip, 10 mg/kg, IP 10 mg/kg, 24 h, read-out: Conc. Mean", "value": 12.3, "unit": "ng/mL"}, {"measurement": "concentration at 24 h", "setting": "ip, 10 mg/kg, IP 10 mg/kg, 24 h, read-out: Conc. Mouse 1", "value": 12.2, "unit": "ng/mL"}, {"measurement": "concentration at 24 h", "setting": "ip, 10 mg/kg, IP 10 mg/kg, 24 h, read-out: Conc. Mouse 2", "value": 9.43, "unit": "ng/mL"}, {"measurement": "concentration at 24 h", "setting": "ip, 10 mg/kg, IP 10 mg/kg, 24 h, read-out: Conc. Mouse 3", "value": 15.1, "unit": "ng/mL"}, {"measurement": "concentration at 0.033 h", "setting": "[5]", "value": 2350, "unit": "ng/mL"}, {"measurement": "concentration at 0.033 h", "setting": "[6]", "value": 2050, "unit": "ng/mL"}, {"measurement": "concentration at 0.033 h", "setting": "[7]", "value": 2820, "unit": "ng/mL"}, {"measurement": "concentration at 0.033 h", "setting": "[8]", "value": 2190, "unit": "ng/mL"}, {"measurement": "concentration at 0.083 h", "setting": "[5]", "value": 1530, "unit": "ng/mL"}, {"measurement": "concentration at 0.083 h", "setting": "[6]", "value": 1200, "unit": "ng/mL"}, {"measurement": "concentration at 0.083 h", "setting": "[7]", "value": 1810, "unit": "ng/mL"}, {"measurement": "concentration at 0.083 h", "setting": "[8]", "value": 1590, "unit": "ng/mL"}, {"measurement": "concentration at 0.25 h", "setting": "[5]", "value": 691, "unit": "ng/mL"}, {"measurement": "concentration at 0.25 h", "setting": "[6]", "value": 491, "unit": "ng/mL"}, {"measurement": "concentration at 0.25 h", "setting": "[7]", "value": 991, "unit": "ng/mL"}, {"measurement": "concentration at 0.25 h", "setting": "[8]", "value": 590, "unit": "ng/mL"}, {"measurement": "concentration at 0.5 h", "setting": "[5]", "value": 397, "unit": "ng/mL"}, {"measurement": "concentration at 0.5 h", "setting": "[6]", "value": 280, "unit": "ng/mL"}, {"measurement": "concentration at 0.5 h", "setting": "[7]", "value": 497, "unit": "ng/mL"}, {"measurement": "concentration at 0.5 h", "setting": "[8]", "value": 413, "unit": "ng/mL"}, {"measurement": "concentration at 1 h", "setting": "[5]", "value": 143, "unit": "ng/mL"}, {"measurement": "concentration at 1 h", "setting": "[6]", "value": 142, "unit": "ng/mL"}, {"measurement": "concentration at 1 h", "setting": "[7]", "value": 135, "unit": "ng/mL"}, {"measurement": "concentration at 1 h", "setting": "[8]", "value": 153, "unit": "ng/mL"}, {"measurement": "concentration at 2 h", "setting": "[5]", "value": 70.3, "unit": "ng/mL"}, {"measurement": "concentration at 2 h", "setting": "[6]", "value": 55.5, "unit": "ng/mL"}, {"measurement": "concentration at 2 h", "setting": "[7]", "value": 92.9, "unit": "ng/mL"}, {"measurement": "concentration at 2 h", "setting": "[8]", "value": 62.3, "unit": "ng/mL"}, {"measurement": "concentration at 4 h", "setting": "[5]", "value": 15.4, "unit": "ng/mL"}, {"measurement": "concentration at 4 h", "setting": "[6]", "value": 16.8, "unit": "ng/mL"}, {"measurement": "concentration at 4 h", "setting": "[7]", "value": 15.4, "unit": "ng/mL"}, {"measurement": "concentration at 4 h", "setting": "[8]", "value": 13.9, "unit": "ng/mL"}, {"measurement": "concentration at 8 h", "setting": "[5]", "value": 8.6, "unit": "ng/mL"}, {"measurement": "concentration at 8 h", "setting": "[6]", "value": 10.1, "unit": "ng/mL"}, {"measurement": "concentration at 8 h", "setting": "[7]", "value": 10.6, "unit": "ng/mL"}, {"measurement": "concentration at 8 h", "setting": "[8]", "value": 5.2, "unit": "ng/mL"}, {"measurement": "concentration at 24 h", "setting": "iv, 1 mg/kg, IV 1.0 mg/kg, 24 h, read-out: Conc. Mouse 3", "value": 0.971, "unit": "ng/mL"}]}]}
